Laboratory results published in patent US20230390296A1, “NOVEL TREATMENT AND PREVENTION OF SARCOPENIA-RELATED DISEASES” (KEIO UNIVERSITY, priority 2020, published 2023).

What was measured:
[1] = Blood (plasma) test of six markers with biochemical automatic analyzer; format: in vivo, mouse
Description: 75-week old mice (C57B16/J) were purchased from Oriental Yeast. Various concentrations (0 mg/kg (control), 0.2 mg/kg, 2 mg/kg, 20 mg/kg, and 40 mg/kg) of OK-1 were administered twice a week for 12 weeks until reaching 87-week old. Blood (plasma) was then recovered, and the concentrations of the following six markers were measured using a biochemical automatic analyzer (JCA-BM6050, JEOL). • LDH: lactate dehydrogenase can predict a liver, myocardial, or skeletal muscle disorder, etc. A decrease in LDH is expected to have a therapeutic effect on acute hepatitis, chronic hepatitis, cirrhosis, liver cancer, and other liver diseases, acute myocardial infarction, congested heart failure, and other heart diseases, polymyositis, muscular dystrophy, and other muscular diseases, pernicious anemia, leukemia, hemolytic anemia, etc. • ALT: This is a biomarker that can predict a liver tissue disorder. A decrease in ALT is expected to have a therapeutic effect on acute hepatitis, chronic hepatitis, alcoholic hepatitis, cirrhosis, liver cancer, fatty liver, acute myocardial infarction and other heart diseases, progressive muscular dystrophy and other muscular diseases, etc. • TG: Neutral fat is used for predicting diabetes, obesity, or arteriosclerotic disease. A decrease in TG is expected to have a therapeutic effect on hyperchylomicronemia, LPL deficiency, diabetes, obesity, arteriosclerosis, gout, hypothyroidism, Cushing's syndrome, nephrotic syndrome, obstructive jaundice, acute/chronic pancreatitis, etc. • HDL-C: This is used as a marker for arteriosclerosis, diabetes, cirrhosis, etc., of HDL cholesterol. A decrease in HDL-C is expected to have a therapeutic effect on primary biliary cirrhosis and hyperthyroidism. • UN: Urea nitrogen is a biomarker that can predict dysfunction of kidney or urinary system. An increase in UN is expected to have a therapeutic effect on toxic hepatitis, fulminant hepatitis, end-stage of cirrhosis, diabetes insipidus, acromegaly, etc. • UA: Uric acid is a biomarker for kidney or liver function. An increase in UA is expected to have a therapeutic effect on cirrhosis, xanthinuria, Fanconi syndrome, Wilson's syndrome, glomerulonephritis, etc.

[2] = tested on: ALS mouse models (e.g., SOD1G93A mice); test: ALS mouse model; format: in vivo; conditions: administered versus non-administered group
Description: ALS mouse models (e.g., SOD1G93A mice) were divided into two groups. OK was administered to one of the groups, and OK was not administered to the other group.

[3] = 75-week old mice, 0.2, 2, 20, 40 mg/kg twice a week for 12 weeks
[4] = at a specific OK-1 concentration, twice a week for 12 weeks

With `C[C@H]1[C@H]2N(C(=O)CN(C)N2C(=O)NCc2ccccc2)[C@@H](Cc2ccc(OP(=O)(O)O)cc2)C(=O)N1Cc1cccc2cccnc12` [OK-1] the HDL-C concentration ([1]; 0.2 to 40 mg/kg twice a week for 12 weeks) was “A significant change was not observed”, the LDH concentration [1, 3] was “reduces the LDH concentration” and the UA concentration [1, 3] was “increases the UA concentration at all concentrations”. For the same compound, the ALT concentration [1, 4] was “a decrease in the ALT concentration”, the TG concentration [1, 4] was “a decrease in TG concentration” and the UN concentration [1, 4] was “an increase in UN concentration”. The ALS [2] was “ALS is improved”.
